# Where a name gives a salt, the structure may show the parent alone. Numbered stars: 1 amine (or outer) side, 2 acyl side, 3 side chain; on linkers, the order of the positions; unused ones are H or OH. Bridge positions count the residues as written; N and C are the ends. Square brackets hold non-standard residues; d marks the D form. Peptide text beside a SMILES is read from it. I, II: the chains in the order shown. Actinocin(9to1) = Cc1c2oc3c(C)ccc(C(=O)[*:1])c3nc-2c(C(=O)[*:2])c(N)c1=O; NMeV = CN[C@H](C(=O)O)C(C)C; Sar = CNCC(=O)O
# Legend:
# [1] = cited from earlier work; for terminal half-life: plasma; for peak concentration in plasma: usual clinical doses
# [2] = test system: HL-60 cells; test: Cell cycle (S+G2M) with RXR-specific ligand; format: cell-based, human; conditions: 1 μM of LG-100268, combined treatment with CDDO-Me
# Experimental: Cell kinetic and DNA fragmentation studies. The cell cycle kinetics was determined by staining cells with acridine orange for cellular DNA and RNA content followed by flow cytometeric analysis as described. Samples were measured in a FACScan flow cytometer (Becton Dickinson, San Jose, Calif.) using the 488-nm line of a […] argon laser and filter settings for green (530 nm) (DNA) and red (585 nm) (RNA) fluorescence. Ten thousand events were stored in list mode for analysis. The percentage of cells in the “sub G1 peak” defined the proportion of apoptotic cells in the tested populations. […] Cell-cycle kinetics was analyzed using ModFit software (Verity Software House, Inc., Topsham, Me.).
# Finally, the inventors examined if CDDO-Me combined with ATRA would enhance differentiation. HL-60 cells were cultured with of 0.1 μM of CDDO-Me for 72 hrs, alone or in combination with 1 μM ATRA. […] At 48 hrs, 67.4% in CDDO-Me-treated cells and 63.5% in ATRA-treated cells were CD11b+ (compared with 40% in DMSO controls), while 85% of cells were positive when both compounds were given simultaneously. These studies were repeated 3 times and yielded essentially identical results. Next, combined treatment with CDDO-Me and RXR-specific ligand were tested for potentiation of anti-leukemic effects. […]
# [3] = test system: HL-60 cells; test: Differentiation by CD11b/CD14 flow cytometry; format: cell-based, human
# Experimental: Immunophenotyping. The PE-conjugated anti-CD11b, FITC-conjugated anti-CD14 monoclonal antibody (mAb) (Becton Dickinson) and PE-conjugated anti-CD95 mAb (PharMingen) were used at a 1/10 dilution.
# Enhancement in cellular differentiation using combinations of CDDO with ATRA were tested. […] Cell differentiation was analyzed by flow cytometry (CD14/CD11b staining). […] These experiments were repeated. […]
# Finally, the inventors examined if CDDO-Me combined with ATRA would enhance differentiation. […] […] Next, combined treatment with CDDO-Me and RXR-specific ligand were tested for potentiation of anti-leukemic effects.
# [4] = test system: HL-60 cells; test: CDDO-Me plus LG-100268 in HL-60 cells (Table 6); format: cell-based, human; set-up: unit not given here; conditions: 24 hrs
# Experimental: Finally, the inventors examined if CDDO-Me combined with ATRA would enhance differentiation. HL-60 cells were cultured with of 0.1 μM of CDDO-Me for 72 hrs, alone or in combination with 1 μM ATRA. […] At 48 hrs, 67.4% in CDDO-Me-treated cells and 63.5% in ATRA-treated cells were CD11b+ (compared with 40% in DMSO controls), while 85% of cells were positive when both compounds were given simultaneously. These studies were repeated 3 times and yielded essentially identical results. Next, combined treatment with CDDO-Me and RXR-specific ligand were tested for potentiation of anti-leukemic effects. RXR-specific ligand LG-100268 (Ligand Pharmaceuticals) used at 10, 100 nm and 1 μM enhanced killing of HL-60 cells in a dose-dependent manner (Table 6).
# [5] = cited from earlier work
# [6] = cited from earlier work; remark: listed apart in the source
# [7] = test system: primary AML cells; test: Apoptosis in primary AML samples, subG1 DNA flow cytometry; format: cell-based, human; conditions: ara-C 1 μM, alone or combined
# Experimental: Subjects. Samples of bone marrow or peripheral blood were obtained for in vitro studies from patients with newly diagnosed or recurrent AML with high (>70%) blast count and from patients with myeloid transformation of chronic myeloid leukemia (CML). Informed consent was obtained following institutional guidelines. Mononuclear cells were separated by Ficoll-Hypaque (Sigma Chemical Co) density-gradient centrifugation.
# (§1) Suspension culture of leukemic cells. Leukemic cell lines were cultured at a density of 3.0×10^5 cells/mL, and AML mononuclear cells at 5×10^5 cells/mL in the presence or absence of indicated concentrations of CDDO-Me. Appropriate amounts of DMSO (final concentration<0.05%) was included as a control. For cytotoxicity studies, 1 μM ara-C was added to the cultures.
# Cell kinetic and DNA fragmentation studies. The cell cycle kinetics was determined by staining cells with acridine orange for cellular DNA and RNA content followed by flow cytometeric analysis as described. […] Ten thousand events were stored in list mode for analysis. The percentage of cells in the “sub G1 peak” defined the proportion of apoptotic cells in the tested populations. […] Cell-cycle kinetics was analyzed using ModFit software (Verity Software House, Inc., Topsham, Me.). […]
# [8] = test system: primary AML samples; test: Annexin V staining of primary AML samples exposed to PPARγ ligands; format: cell-based, human; conditions: 72 hrs; 15d-PGJ2 5 μM; BRL49653, L-805645, GW347845X 25 μM
# Experimental: Annexin V staining. Cells were washed in phosphate-buffered saline (PBS) and resuspended in 100 μl of binding buffer containing Annexin V (Roche Diagnostic Corporation, Indianapolis, Ind.). Cells were analyzed by flow cytometry after the addition of propidium iodide (PI). Annexin V binds to those cells that express phosphatidylserine on the outer layer of the cell membrane, and PI stains the cellular DNA of those cells with a compromised cell membrane. This allows for live cells (unstained with either fluorochrome) to be discriminated from apoptotic cells (stained only with annexin V) and necrotic cells (stained with both annexin and PI).
# [9] = test system: HL-60 cells; test: Viable cell count of leukemic cells in suspension culture (Trypan blue); format: cell-based, human; conditions: Homo sapiens, HL-60, read-out: concentration required for 50% inhibition of HL-60 cells; PPARγ ligands compared to CDDO
# Experimental: as §1
# CDDO. […] The percentage of proliferating cells were analyzed by FCM.
# CDDO-Me. […] Mechanism of growth inhibition was analyzed on cell cycle and apoptosis in HL-60 cells.
# [10] = test system: HL-60 cells; test: Differentiation by CD11b/CD14 flow cytometry; format: cell-based, human; conditions: 7 days
molecule,measurement,setting,value
CO[C@@]12[C@H](COC(N)=O)C3=C(C(=O)C(C)=C(N)C3=O)N1C[C@@H]1N[C@@H]12 [Mitomycin],time required to reduce the serum concentration by 50%,[1]; after 30 mg bolus injection,17 min
same,fraction of dose excreted/recovered in the urine,[1]; in vivo,Approximately 10%
"O=C(O)CCCc1ccc(N(CCCl)CCCl)cc1 [Chlorambucil, 4-[bis(2-chlorethyl)amino] benzenebutanoic acid]",oral absorption,[1]; in vivo,rapidly and completely absorbed
same,terminal half-life,[1],~1.5 h
Cc1cc2c(cc1C1(c3ccc(C(=O)O)cn3)CC1)C(C)(C)CCC2(C)C [LG-100268],percentage of cells in S+G2M decreased by,[2],50%
same,percentage of CD14 (+) live cells (FCM),"[3]; CDDO 0, ligand 1 nM",16.6%
same,percentage of CD14 (+) live cells (FCM),"[3]; CDDO 0, ligand 10 nM",9.6%
same,percentage of CD14 (+) live cells (FCM),"[3]; CDDO 0, ligand 100 nM",9.4%
same,Table 6 value: CDDO-Me-induced monocytic differentiation in HL-60 cells,"[4]; CDDO-Me 0, LG-100268 10 nM",6.8
same,Table 6 value: CDDO-Me-induced monocytic differentiation in HL-60 cells,"[4]; CDDO-Me 0, LG-100268 100 nM",6.2
same,Table 6 value: CDDO-Me-induced monocytic differentiation in HL-60 cells,"[4]; CDDO-Me 0, LG-100268 1 μM",6.3
CC[C@]1(O)C[C@@H]2CN(CCc3c([nH]c4ccccc34)[C@@](C(=O)OC)(c3cc4c(cc3OC)N(C)[C@H]3[C@@](O)(C(=O)OC)[C@H](OC(C)=O)[C@]5(CC)C=CCN6CC[C@]43[C@@H]65)C2)C1 [Vinblastine],fraction of dose excreted/recovered in the urine,[1]; in vivo,Approximately 15%
same,fraction recovered in the feces after biliary excretion,[1]; in vivo,about 10%
same,peak concentration in plasma,[1],approximately 0.4 mM
TRAIL: member of tumor necrosis factor family of cytokines,effect of chemotherapy in mice bearing human colon carcinoma tumors,"[5]; 250-500 μg (Gliniak et al, 1999)",synergistically enhanced effect of chemotherapy
same,survival of tumor-bearing mice,"[5]; daily injections of 200-1000 μg (14 days) (Walczak et al., 1999)",significantly increased survival
"COc1cccc2c1C(=O)c1c(O)c3c(c(O)c1C2=O)C[C@@](O)(C(=O)CO)C[C@@H]3O[C@H]1C[C@H](N)[C@H](O)[C@H](C)O1 [Doxorubicin, 5,12-Naphthacenedione, (8s-cis)-10-[(3-amino-2,3,6-trideoxy-a-L-lyxo-hexopyranosyl)oxy]-7,8,9,10-tetrahydro-6,8,11-trihydroxy-8-(hydroxyacetyl)-1-methoxy-hydrochloride]",oral absorption,[1]; in vivo,absorbed poorly
same,elimination half-life,[1]; in vivo,about 30 hr
same,fraction of dose excreted/recovered in the urine,[1]; in vivo,a few percent
"O=NN(CCCl)C(=O)NC1CCCCC1 [Lomustine, 1-(2-chloro-ethyl)-3-cyclohexyl-1 nitrosourea]",radioactivity excreted as degradation products within 24 hours,[1]; oral radioactive lomustine 30 mg/m^2 to 100 mg/m^2,about half of the radioactivity
N.N.[Cl][Pt][Cl] [Cisplatin],oral absorption,[1]; in vivo,not absorbed orally
"CC1=C(/C=C/C(C)=C/C=C/C(C)=C/C(=O)O)C(C)(C)CCC1 [ATRA, all-trans-retinoic acid, reference compound]",CD11b+ cells,"[3]; 48 hrs, CDDO-Me 0.1 μM, ATRA 1 μM, alone or simultaneously (DMSO controls 40%)",63.5%
same,percentage of CD14 (+) live cells (FCM),"[3]; CDDO 0, ligand 1 nM",4%
same,percentage of CD14 (+) live cells (FCM),"[3]; CDDO 0, ligand 10 nM",5.2%
same,percentage of CD14 (+) live cells (FCM),"[3]; CDDO 0, ligand 100 nM",4.4%
same,patients achieving complete remissions,"[6]; acute promyelocytic leukemia (Warrell et al., 1991)",over 90%
"Cc1c2oc3c(C)ccc(C(=O)N[C@@H]4C(=O)N[C@H](C(C)C)C(=O)N5CCC[C@H]5C(=O)N(C)CC(=O)N(C)[C@@H](C(C)C)C(=O)O[C@@H]4C)c3nc-2c(C(=O)N[C@@H]2C(=O)N[C@H](C(C)C)C(=O)N3CCC[C@H]3C(=O)N(C)CC(=O)N(C)[C@@H](C(C)C)C(=O)O[C@@H]2C)c(N)c1=O [Actinomycin D] (I: T[dV]P[Sar][NMeV] / II: T[dV]P[Sar][NMeV]; ester I:1-I:C, II:1-II:C; linker I:N-II:N via Actinocin(9to1))",elimination half-life,[1]; in vivo,about 36 hr
same,fraction of dose excreted/recovered in the urine,[1]; in vivo,10%
same,fraction secreted/excreted into the bile,[1]; in vivo,Half of the dose
Bleomycin,fraction of dose excreted/recovered in the urine,[1]; in vivo,60% to 70
CC[C@]1(O)C[C@H]2CN(CCc3c([nH]c4ccccc34)[C@@](C(=O)OC)(c3cc4c(cc3OC)N(C=O)[C@H]3[C@@](O)(C(=O)OC)[C@H](OC(C)=O)[C@]5(CC)C=CCN6CC[C@]43[C@@H]65)C2)C1 [Vincristine],terminal half-life,[1],about 24 hours
same,peak concentration in plasma,[1],approximately 0.4 mM
COc1cccc2c1C(=O)c1c(O)c3c(c(O)c1C2=O)C[C@@](O)([C@H](C)O)C[C@@H]3O[C@H]1C[C@H](N)[C@H](O)[C@H](C)O1 [daunorubicinol],elimination half-life,[1]; in vivo,about 27 hr
"N[C@@H](Cc1ccc(N(CCCl)CCCl)cc1)C(=O)O [Melphalan, 4-[bis(2-chloroethyl)amino]-L-phenylalanine]",patients with favorable response,"[6]; multiple myeloma, oral administration",about one third to one half
"COc1cccc2c1C(=O)c1c(O)c3c(c(O)c1C2=O)C[C@@](O)(C(C)=O)C[C@@H]3O[C@H]1C[C@H](N)[C@H](O)[C@H](C)O1 [Daunorubicin, 5,12-Naphthacenedione, (8S-cis)-8-acetyl-10-[(3-amino-2,3,6-trideoxy-α-L-lyxo-hexanopyranosyl)oxy]-7,8,9,10-tetrahydro-6,8,11-trihydroxy-10-methoxy-, hydrochloride]",oral absorption,[1]; in vivo,Oral absorption is poor
same,elimination half-life,[1]; in vivo,about 19 hr
same,fraction secreted/excreted into the bile,[1]; in vivo,~40%
"Nc1ccn([C@@H]2O[C@H](CO)[C@@H](O)[C@@H]2O)c(=O)n1 [ara-C, reference compound]",apoptosis in AML samples,"[7]; CDDO 1 μM, n=23 (DMSO control 27.7±3.7%)",41.6±4.6%
same,cell killing in AML samples,"[7]; CDDO-Me 1 μM, n=6 (DMSO control 24.9±7.4%)",39.8±8.2%
"CS(=O)(=O)OCCCCOS(C)(=O)=O [busulfan, 1,4-butanediol dimethanesulfonate]",adults obtaining hematologic remission,[6]; previously untreated chronic myelogenous leukemia,Approximately 90%
"CN(CCOc1ccc(CC2SC(=O)NC2=O)cc1)c1ccccn1 (centres unmarked) [BRL49653, rosiglitazone]",annexin-V-positive cells,[8],7%
same,IC50,[9],25 to 50 µM
same,CD11b %,[10]; 10 μM (15d-PGJ2 column head prints M),38.9%
same,CD11b %,[10]; 25 μM,48.5%

# — US7795305B2, “CDDO-compounds and combination therapies thereof” (Board of Regents, The University of Texas System, priority 2000, dated 2010)
